Experimental data from the supplement of paper PMC9386025.

What was measured:
Assay in all cases: drug sensitivity score (DSS) (DSS (dimensionless)); higher = more sensitive (stronger drug response)
[1] = test system: FIMM-PDC1 (patient-derived ovarian cancer cells); conditions: genetic perturbation: none (patient-derived cell culture)
Method in brief: (§1)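 Drugs were pre-plated in 384-well plates at five concentrations covering a 10,000-fold range, and 1 000 – 1 500 cells per well were added from patient-derived cultures or from ovarian cancer cell lines whose shRNA had been induced with 100 ng/ml doxycycline for three days or longer. Incubation lasted three days at 37 °C under 5.0 % CO2. A PHERAstar FS then recorded CellTiter-Glo luminescence as the readout of viability. A drug sensitivity score, calculated as described before, summarised the dose-response curve of every drug.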

[2] = test system: FIMM-PDC3 (patient-derived ovarian cancer cells); conditions: genetic perturbation: none (patient-derived cell culture)
Method in brief: as §1

[3] = test system: FIMM-PDC4 (patient-derived ovarian cancer cells); conditions: genetic perturbation: none (patient-derived cell culture)
Method in brief: as §1

[4] = test system: FIMM-PDC5 (patient-derived ovarian cancer cells); conditions: genetic perturbation: none (patient-derived cell culture)
Method in brief: as §1

[5] = test system: FIMM-PDC6 (patient-derived ovarian cancer cells); conditions: genetic perturbation: none (patient-derived cell culture)
Method in brief: as §1

[6] = test system: FIMM-PDC7 (patient-derived ovarian cancer cells); conditions: genetic perturbation: none (patient-derived cell culture)
Method in brief: as §1

[7] = test system: JHOS2
Method in brief: as §1

[8] = test system: Kuramochi
Method in brief: as §1

[9] = test system: OVSAHO
Method in brief: as §1

[10] = genetic perturbation: DOX-induced PTK7 shRNA knockdown
[11] = genetic perturbation: DOX-induced control shRNA

N.N.[Cl][Pt][Cl] [Cisplatin]
drug sensitivity score [1]: 4.8
drug sensitivity score [2]: 18.9
drug sensitivity score [3]: 5.7
drug sensitivity score [4]: 5.4
drug sensitivity score [5]: 9.8
drug sensitivity score [6]: 4.7
drug sensitivity score [7, 10]: 14.9
drug sensitivity score [7, 11]: 4.1
drug sensitivity score [8, 10]: 14.2
drug sensitivity score [8, 11]: 7
drug sensitivity score [9, 10]: 17.6
drug sensitivity score [9, 11]: 5.1

CC(C)(C)c1cnc(CSc2cnc(NC(=O)C3CCNCC3)s2)o1 [SNS-032]
drug sensitivity score [1]: 18.6
drug sensitivity score [2]: 16.9
drug sensitivity score [3]: 20
drug sensitivity score [4]: 24.7
drug sensitivity score [5]: 19.2
drug sensitivity score [6]: 19.1
drug sensitivity score [7, 10]: 19.9
drug sensitivity score [7, 11]: 16.9
drug sensitivity score [8, 10]: 16.9
drug sensitivity score [8, 11]: 17.2
drug sensitivity score [9, 10]: 17.5
drug sensitivity score [9, 11]: 15.9

COc1ccc(-c2nc(N3CCOCC3)c3sc(CN(C)c4ncc(C(=O)NO)cn4)cc3n2)cn1 [CUDC-907]
drug sensitivity score [1]: 29.9
drug sensitivity score [2]: 34.3
drug sensitivity score [3]: 22.7
drug sensitivity score [4]: 34.5
drug sensitivity score [5]: 29.9
drug sensitivity score [6]: 25.9
drug sensitivity score [7, 10]: 31.3
drug sensitivity score [7, 11]: 28.1
drug sensitivity score [8, 10]: 33.1
drug sensitivity score [8, 11]: 27.7
drug sensitivity score [9, 10]: 27.8
drug sensitivity score [9, 11]: 31

COc1cc(Nc2ncc(F)c(Nc3ccc4c(n3)NC(=O)C(C)(C)O4)n2)cc(OC)c1OC [Tamatinib]
drug sensitivity score [1]: < 0
drug sensitivity score [2]: 3.8
drug sensitivity score [3]: 6.4
drug sensitivity score [4]: 12.9
drug sensitivity score [5]: 1.6
drug sensitivity score [6]: 8.6
drug sensitivity score [7, 10]: 4.2
drug sensitivity score [7, 11]: 0.1
drug sensitivity score [8, 10]: 2.9
drug sensitivity score [8, 11]: 1.1
drug sensitivity score [9, 10]: 7
drug sensitivity score [9, 11]: 1.1

CN(C)CC#Cc1ccc(OCCCc2sc(N3CCc4cccc(C(=O)Nc5nc6ccccc6s5)c4C3)nc2C(=O)O)c(F)c1
drug sensitivity score [1]: 18.7
drug sensitivity score [2]: 16.8
drug sensitivity score [3]: 14.1
drug sensitivity score [4]: 31.9
drug sensitivity score [5]: 30.1
drug sensitivity score [6]: 19.3
drug sensitivity score [7, 10]: 6.3
drug sensitivity score [7, 11]: 0.5
drug sensitivity score [8, 10]: 4.55
drug sensitivity score [8, 11]: 9.9
drug sensitivity score [9, 10]: 23.3
drug sensitivity score [9, 11]: 2.6

O=C(c1cc(Cc2n[nH]c(=O)c3ccccc23)ccc1F)N1CCN(C(=O)C2CC2)CC1 [Olaparib]
drug sensitivity score [1]: 3.45
drug sensitivity score [2]: 1.5
drug sensitivity score [3]: 3.8
drug sensitivity score [4]: 6.1
drug sensitivity score [5]: 9.2
drug sensitivity score [6]: 6.1
drug sensitivity score [7, 10]: 6.6
drug sensitivity score [7, 11]: 3.2
drug sensitivity score [8, 10]: 3.35
drug sensitivity score [8, 11]: 2.6
drug sensitivity score [9, 10]: 3.5
drug sensitivity score [9, 11]: 2.5

C#Cc1cccc(Nc2ncnc3cc(OCCOC)c(OCCOC)cc23)c1 [Erlotinib]
drug sensitivity score [1]: 3.3
drug sensitivity score [2]: 11.3
drug sensitivity score [3]: 12
drug sensitivity score [4]: 17.2
drug sensitivity score [5]: 12.1
drug sensitivity score [6]: 10
drug sensitivity score [7, 10]: 1.2
drug sensitivity score [7, 11]: 3.5
drug sensitivity score [8, 10]: 1.5
drug sensitivity score [8, 11]: 3
drug sensitivity score [9, 10]: 15.1
drug sensitivity score [9, 11]: 2.4
